# Reference: US20070004660A1, “Synergistic Modulation of Flt3 Kinase Using Alkylquinolines and Alkylquinazolines” (priority 2005, published 2007)
# Biological target: T1, wild-type FLT3 receptor (Homo sapiens, UniProt P36888)
# T1 construct: host or cells: Baf3 (murine B cell lymphoma line), stably transfected
# T1 sequence (P36888 27-993): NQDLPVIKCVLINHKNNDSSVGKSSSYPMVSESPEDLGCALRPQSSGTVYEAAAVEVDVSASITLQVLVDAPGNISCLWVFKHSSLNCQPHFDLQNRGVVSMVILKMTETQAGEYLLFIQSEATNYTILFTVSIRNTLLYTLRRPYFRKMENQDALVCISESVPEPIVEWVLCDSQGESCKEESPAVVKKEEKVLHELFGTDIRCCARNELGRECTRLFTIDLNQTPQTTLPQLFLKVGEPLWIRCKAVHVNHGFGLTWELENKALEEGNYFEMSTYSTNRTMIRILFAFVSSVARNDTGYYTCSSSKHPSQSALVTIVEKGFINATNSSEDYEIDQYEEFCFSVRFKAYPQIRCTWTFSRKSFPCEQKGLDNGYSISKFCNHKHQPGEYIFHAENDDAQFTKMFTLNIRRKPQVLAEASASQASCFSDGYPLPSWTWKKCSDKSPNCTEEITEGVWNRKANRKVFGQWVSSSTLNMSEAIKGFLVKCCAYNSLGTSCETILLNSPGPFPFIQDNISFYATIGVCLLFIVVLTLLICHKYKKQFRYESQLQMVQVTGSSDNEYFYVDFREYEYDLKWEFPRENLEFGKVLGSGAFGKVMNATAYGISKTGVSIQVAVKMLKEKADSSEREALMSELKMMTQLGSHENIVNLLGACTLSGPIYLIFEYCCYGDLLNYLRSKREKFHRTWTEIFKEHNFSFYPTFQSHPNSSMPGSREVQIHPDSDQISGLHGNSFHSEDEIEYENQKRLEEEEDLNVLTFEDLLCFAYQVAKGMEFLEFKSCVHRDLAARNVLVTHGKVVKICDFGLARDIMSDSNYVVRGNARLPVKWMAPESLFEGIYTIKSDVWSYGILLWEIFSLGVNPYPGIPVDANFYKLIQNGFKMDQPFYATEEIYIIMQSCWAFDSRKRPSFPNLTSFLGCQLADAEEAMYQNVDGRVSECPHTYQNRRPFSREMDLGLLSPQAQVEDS
# Test: Cell-based FLT3 receptor ELISA (FLT ligand-induced phosphorylation in Baf3 FLT3 cells)
# Details: 100 ng/mL Flt ligand, uncertainty ±20%
# Method: Specific cellular inhibition of FLT ligand-induced wild-type FLT3 phosphorylation was measured in the following manner: Baf3 FLT3 cells overexpressing the FLT3 receptor were obtained from Dr. Michael Heinrich (Oregon Health and Sciences University). The Baf3 FLT3 cell lines were created by stable transfection of parental Baf3 cells (a murine B cell lymphoma line dependent on the cytokine IL-3 for growth) with wild-type FLT3. Cells were selected for their ability to grow in the absence of IL-3 and in the presence of FLT3 ligand. Baf3 cells were maintained in RPMI 1640 with 10% FBS, penn/strep and 10 ng/ml FLT ligand at 37° C., 5% CO2. To measure direct inhibition of the wild-type FLT3 receptor activity and phosphorylation a sandwich ELISA method was developed similar to those developed for other RTKs (see Sadick, M D, Sliwkowski, M X, Nuijens, A, Bald, L, Chiang, N, Lofgren, J A, Wong W L T. Analysis of Heregulin-Induced ErbB2 Phosphorylation with a High-Throughput Kinase Receptor Activation Enzyme-Linked Immunsorbent Assay, Analytical Biochemistry. 1996; 235:207-214 and Baumann C A, Zeng L, Donatelli R R, Maroney A C. Development of a quantitative, high-throughput cell-based enzyme-linked immunosorbent assay for detection of colony-stimulating factor-1 receptor tyrosine kinase inhibitors. J Biochem Biophys Methods. 2004; 60:69-79.). 200 μL of Baf3FLT3 cells (1×10^6 /mL) were plated in 96 well dishes in RPMI 1640 with 0.5% serum and 0.01 ng/mL IL-3 for 16 hours prior to 1 hour compound or DMSO vehicle incubation. Cells were treated with 100 ng/mL Flt ligand (R&D Systems Cat# 308-FK) for 10 min. at 37° C. Cells were pelleted, washed and lysed in 100 ul lysis buffer (50 mM Hepes, 150 mM NaCl, 10% Glycerol, 1% Triton-X-100, 10 mM NaF, 1 mM EDTA, 1.5 mM MgCl2, 10 mM NaPyrophosphate) supplemented with phosphatase (Sigma Cat# P2850) and protease inhibitors (Sigma Cat #P8340). Lysates were cleared by centrifugation at 1000×g for 5 minutes at 4° C. Cell lysates were transferred to white wall 96 well microtiter (Costar #9018) plates coated with 50 ng/well anti-FLT3 antibody (Santa Cruz Cat# sc-480) and blocked with SeaBlock reagent (Pierce Cat#37527). Lysates were incubated at 4° C. for 2 hours. Plates were washed 3× with 200 ul/well PBS/0.1% Triton-X-100. Plates were then incubated with 1:8000 dilution of HRP-conjugated anti-phosphotyrosine antibody (Clone 4G10, Upstate Biotechnology Cat#16-105) for 1 hour at room temperature. Plates were washed 3× with 200 ul/well PBS/0.1% Triton-X-100. Signal detection with Super Signal Pico reagent (Pierce Cat#37070) was done according to manufacturer's instruction with a Berthold microplate luminometer. All data points are an average of triplicate samples. […] Inhibition and IC50 data analysis was done with GraphPad Prism using a non-linear regression fit with a multiparamater, sigmoidal dose-response (variable slope) equation.
row,Compound,IC50 [nM]
1,"COc1cc2ncnc(C3CCN(C(=O)Nc4ccc(C5=CCNCC5)cc4)CC3)c2cc1OC [Example 62, 4-(6,7-Dimethoxy-quinazolin-4-yl)-piperidine-1-carboxylic acid [4-(1,2,3,6-tetrahydro-pyridin-4-yl)-phenyl]-amide]",976
2,"CC(C)Oc1ccc(NC(=O)N2CCC(c3ncnc4cc(OCCCNS(C)(=O)=O)ccc34)CC2)cc1 [Example 65, 4-[7-(3-Methanesulfonylamino-propoxy)-quinazolin-4-yl]-piperidine-1-carboxylic acid (4-isopropoxy-phenyl)-amide]",37
3,"O=C(Nc1ccc(N2CCOCC2)cc1)N1CCC(c2ncnc3cc(OCCCN4CCCC4)ccc23)CC1 [Example 124, 4-[7-(3-Pyrrolidin-1-yl-propoxy)-quinazolin-4-yl]-piperidine-1-carboxylic acid (4-morpholin-4-yl-phenyl)-amide]",63
4,"COc1cc2ncnc(C3CCN(C(=O)Nc4ccc(C5=CCN(C(=O)OC(C)(C)C)CC5)cc4)CC3)c2cc1OC [Example 61, 4-(4-{[4-(6,7-Dimethoxy-quinazolin-4-yl)-piperidine-1-carbonyl]-amino}-phenyl)-3,6-dihydro-2H-pyridine-1-carboxylic acid tert-butyl ester]",1800
5,"CC(=O)N1CCN(CCCOc2ccc3c(C4CCN(C(=O)Nc5ccc(N6CCOCC6)cc5)CC4)ncnc3c2)CC1 [Example 117, 4-{7-[3-(4-Acetyl-piperazin-1-yl)-propoxy]-quinazolin-4-yl}-piperidine-1-carboxylic acid (4-morpholin-4-yl-phenyl)-amide]",88
6,O=C(Nc1ccc(N2CCOCC2)cc1)N1CCC(c2ncnc3cc(OCCCN4CCCCC4)ccc23)CC1 [Example 75],84
7,"O=C1CCCN1CCCOc1ccc2c(C3CCN(C(=O)Nc4cnc(N5CCCC5)nc4)CC3)ncnc2c1 [Example 90, 4-{7-[3-(2-Oxo-pyrrolidin-1-yl)-propoxy]-quinazolin-4-yl}-piperidine-1-carboxylic acid (2-pyrrolidin-1-yl-pyrimidin-5-yl)-amide]",279
8,"COc1cc2ncnc(C3CCN(C(=O)Nc4ccccc4)CC3)c2cc1OC [Example 45, 4-(6,7-Dimethoxy-quinazolin-4-yl)-piperidine-1-carboxylic acid phenylamide]",> 3000
9,"O=C1CCCN1CCOc1ccc2c(C3CCN(C(=O)Nc4ccc(N5CCOCC5)nc4)CC3)ncnc2c1 [Example 83, 4-{7-[2-(2-Oxo-pyrrolidin-1-yl)-ethoxy]-quinazolin-4-yl}-piperidine-1-carboxylic acid (6-morpholin-4-yl-pyridin-3-yl)-amide]",37
10,"COc1cc2ncnc(C3CCN(C(=O)NC4CCC(C(C)(C)C)CC4)CC3)c2cc1OC (stereo not shown) [Example 54, 4-(6,7-Dimethoxy-quinazolin-4-yl)-piperidine-1-carboxylic acid (4-tert-butyl-cyclohexyl)-amide]",266
11,"CC(C)Oc1ccc(NC(=O)N2CCC(c3ncnc4ccc(OCCCN5CCCC5=O)cc34)CC2)cc1 [Example 101, 4-{6-[3-(2-Oxo-pyrrolidin-1-yl)-propoxy]-quinazolin-4-yl}-piperidine-1-carboxylic acid (4-isopropoxy-phenyl)-amide]",42
12,"CS(=O)(=O)OCCCOc1ccc2c(C3CCN(C(=O)Nc4ccc(N5CCOCC5)cc4)CC3)ncnc2c1 [Example 122, Methanesulfonic acid 3-{4-[1-(4-morpholin-4-yl-phenylcarbamoyl)-piperidin-4-yl]-quinazolin-7-yloxy}-propyl ester]",110
13,"CN1CCC(COc2ccc3c(C4CCN(C(=O)Nc5ccc(OC6CCC6)nc5)CC4)ncnc3c2)CC1 [Example 107, 4-[7-(1-Methyl-piperidin-4-ylmethoxy)-quinazolin-4-yl]-piperidine-1-carboxylic acid (6-cyclobutoxy-pyridin-3-yl)-amide]",21

# More lines, now with the values ahead:
row,IC50 [nM],Compound
1,28,"CN1CCN(CCCOc2ccc3c(C4CCN(C(=O)Nc5ccc(N6CCOCC6)c(F)c5)CC4)ncnc3c2)CC1 [Example 81, 4-{7-[3-(4-Methyl-piperazin-1-yl)-propoxy]-quinazolin-4-yl}-piperidine-1-carboxylic acid (3-fluoro-4-morpholin-4-yl-phenyl)-amide]"
2,3,"CC(C)Oc1ccc(NC(=O)N2CCC(c3ncnc4cc(OCCCN5CCCC5=O)ccc34)CC2)cc1 [Example 67, 4-{7-[3-(2-Oxo-pyrrolidin-1-yl)-propoxy]-quinazolin-4-yl}-piperidine-1-carboxylic acid (4-isopropoxy-phenyl)-amide]"
3,8,"COc1cc2ncnc(C3CCN(C(=O)Nc4ccc(Oc5ccccc5)cc4)CC3)c2cc1OC [Example 47, 4-(6,7-Dimethoxy-quinazolin-4-yl)-piperidine-1-carboxylic acid (4-phenoxy-phenyl)-amide]"
4,28,"O=C1CCCN1CCCOc1ccc2c(C3CCN(C(=O)Nc4ccc(N5CCOCC5)nc4)CC3)ncnc2c1 [Example 72, 4-{7-[3-(2-Oxo-pyrrolidin-1-yl)-propoxy]-quinazolin-4-yl}-piperidine-1-carboxylic acid (6-morpholin-4-yl-pyridin-3-yl)-amide]"
5,12,"O=C1CCCN1CCOc1ccc2c(C3CCN(C(=O)Nc4ccc(N5CCCC5)cc4)CC3)ncnc2c1 [Example 74, 4-{7-[2-(2-Oxo-pyrrolidin-1-yl)-ethoxy]-quinazolin-4-yl}-piperidine-1-carboxylic acid (4-pyrrolidin-1-yl-phenyl)-amide]"
6,10,"CN1CCC(COc2ccc3c(C4CCN(C(=O)Nc5ccc(N6CCCC6)cc5)CC4)ncnc3c2)CC1 [Example 109, 4-[7-(1-Methyl-piperidin-4-ylmethoxy)-quinazolin-4-yl]-piperidine-1-carboxylic acid (4-pyrrolidin-1-yl-phenyl)-amide]"
7,17,"CC(C)Oc1ccc(NC(=O)N2CCC(c3ncnc4cc(OCCN5CCOC5=O)ccc34)CC2)cc1 [Example 79, 4-{7-[2-(2-Oxo-oxazolidin-3-yl)-ethoxy]-quinazolin-4-yl}-piperidine-1-carboxylic acid (4-isopropoxy-phenyl)-amide]"
8,16,"CN1CCN(CCCOc2ccc3c(C4CCN(C(=O)Nc5ccc(N6CCCC6)nc5)CC4)ncnc3c2)CC1 [Example 104, 4-{7-[3-(4-Methyl-piperazin-1-yl)-propoxy]-quinazolin-4-yl}-piperidine-1-carboxylic acid (6-pyrrolidin-1-yl-pyridin-3-yl)-amide]"
9,27,"COc1cc2ncnc(C3CCN(C(=O)Nc4ccc(-c5ccco5)cc4)CC3)c2cc1OC [Example 59, 4-(6,7-Dimethoxy-quinazolin-4-yl)-piperidine-1-carboxylic acid (4-furan-2-yl-phenyl)-amide]"
